The values below come from PMC5955835 (ACS chemical neuroscience, 2018).

SMILES strings stand for the structures. “Also recorded” adds a separate entry of the source. Counter-ions that a name gives are not always drawn.

Test [1] relates to VC4 and 5 neurons of C. elegans SC_APP model. In words: HCS microfluidic neurodegeneration assay in C. elegans SC_APP model. In kind it is in vivo. The settings on record: for effect on neurodegeneration of VC4 and 5 neurons in SC_APP model: D3 adult animals, liquid culture, doses 0.02, 0.2, 2 and 20 μM, vs vehicle-treated SC_APP (200 μM FUdR, 0.5% DMSO); for concentration of highest efficacy in protecting against neurodegeneration: SC_APP model, D3 animals, four doses 0.02-20 μM.

Test [2] concerns VC4 and 5 neurons of SC_APP vem-1/PGRMC1 null C. elegans. The settings on record: earlier work, SC_APP model; cited from earlier work.
The test system of test [3] is transgenic APP mouse model. Particulars: listed as SAS-0132; cited from earlier work.

Consider `CN1CCN(c2ccc3c(c2)[C@H]2C[C@@H]3CCN2C(=O)OCc2ccccc2)CC1` [Compound 1], for which the “effect on neurodegeneration of VC4 and 5 neurons in SC_APP model” value (from here on “effect on neurodegeneration”) in test [1] is recorded as “reduce neurodegeneration relative to the vehicle treated SC_APP group”. Moreover, in test [2], the “PGRMC1 dependence of reduction of neurodegeneration” value is reported as “reduced neurodegeneration through a pathway dependent upon PGRMC1”. For the same compound, in test [3], the “cognitive performance in transgenic AD mice” value was “improvement in cognitive performance; also recorded: efficacious”.

Consider `OC(CNc1ccccc1)Cn1c2ccc(Br)cc2c2cc(Br)ccc21` (stereo not drawn) [Compound P7C3, P7C3], for which the “concentration of highest efficacy in protecting against neurodegeneration” value (“concentration of highest efficacy” below) in test [1] came out at 0.2 µM.

For `COc1ccc(S(=O)(=O)Nc2cc(Cl)cc(Cl)c2OC)cc1N1CCNCC1` [SB399885, SB 399885 hydrochloride], in test [1], the “effect on neurodegeneration” value is on record as “protected the cholinergic neurons of the SC_APP model”; the “concentration of highest efficacy” value was determined as 20 µM.

As for `Fc1ccc(-n2cc(CCCCN3CCC4(CC3)OCc3ccccc34)c3ccccc32)cc1` [Siramesine], the “effect on neurodegeneration” value in test [1] is reported as “increase neurodegeneration after a dosing threshold is exceeded despite an initial decrease at lower dosages”.

With `C=C(c1ccc(C(=O)O)cc1)c1cc2c(cc1C)C(C)(C)CCC2(C)C` [bexarotene], in test [1], the “effect on neurodegeneration” value is recorded as “protected the cholinergic neurons of the SC_APP model”; the “concentration of highest efficacy” value came out at 20 µM.
